# Measured values reported in patent US20120088698A1, “WATER IN OIL EMULSION, METHOD FOR THE PRODUCTION THEREOF” (CLARIANT FINANCE (BVI) LIMITED, priority 2009, published 2012).
# Where two headings read alike, the source gives them in different places.
# Columns and labels:
# Skelotonema Costatum [1] = details: in vivo
# [2] = Biodegradability, OECD 306 test; details: OECD 306, 28 days
# Skelotonema Costatum [3] = assay: Ecotoxicology, Protocol ISO 10253; details: for EC50: 72 hrs
Compound,72 h EC90 (Skelotonema Costatum [1]) [µg/mL],NOEC@72 h (Skelotonema Costatum [1]) [mg/L],48 h NOEC (Artica Tonsa; 48 h) [mg/L],"48 h LC90 (Artica Tonsa; 48 h, first figure of LC90/100) [µg/mL]","48 h LC100 (Artica Tonsa; 48 h, second figure of LC90/100) [mg/L]",LC50 (Artica Tonsa; 48 hrs) [µg/mL],LC5@10 days (Corophium Volulator; 10 days) [mg/kg],NOEC @ 10 days (Corophium Volulator; in vivo) [mg/kg],Degradation (biodegradability) [2] [%],EC50 (Skelotonema Costatum [3]) [µg/mL],NOEC @ 10 days (Corophium Volulator; 10 days) [mg/kg],72 h EC90 (Skelotonema Costatum [3]; 72 h) [µg/mL],NOEC@72 h (Skelotonema Costatum [3]; 72 h) [mg/L]
"CCCCCCCC/C=C\CCCCCCCCN1CC(C(=O)O)CC1=O.NCCO (centres unmarked) [OleylPyCOO-MEA, N-oleyl(pyrrolidine-2-one)-4-carboxylic acid/ethanol amine salt]",0.58,0.32,0.30,4.2,9.0,2.8,433,160,69,0.44,–,–,–
N-oleyl(pyrroildine-2-one)-4-carboxylic acid/morpholine distillation residue salt [OleylPyCOO-AmixM],–,–,–,–,–,–,–,–,–,1.6,524,3.0,0.56
